Patent US10087178B2, “Substituted spiropyrido[1,2-a]pyrazine derivative and medicinal use thereof as HIV integrase inhibitor” (priority 2012, dated 2018)
pEC50: −log10 of the molar value. Counter-ions that a name gives are not always drawn. Like-named read-outs stand apart in the source and are kept apart here.

Tested on: HIV-1 NL4-3 strain
Assay: Evaluation of antiviral activity: acute infection system of MT-4 cell with HIV-1 NL4-3 strain
Format: cell-based
[1] = Human immunodeficiency virus 1, NL43, MT4, 120 h, read-out: antiviral activity (EC50), MT-4 cells infected with HIV-1 NL4-3 strain (MOI 0.05), cultured 5 days, Cell Titer-Glo
[2] = Human immunodeficiency virus 1, NL43, MT4, 120 h, MT-4 cells infected with HIV-1 NL4-3 strain (MOI 0.05), cultured 5 days, Cell Titer-Glo, read-out: antiviral activity (EC50)
[3] = MT-4 cells infected with HIV-1 NL4-3 strain (MOI 0.05), cultured 5 days, Cell Titer-Glo, read-out: antiviral activity (EC50)
[4] = Human immunodeficiency virus 1, NL43, MT4, 120 h, antiviral activity, MT-4 cells infected with HIV-1 NL4-3 (MOI 0.05), 5 days culture, Cell Titer-Glo luminescence, read-out: EC50

| SMILES | pEC50 [1] | pEC50 [2] | also measured |
| --- | --- | --- | --- |
| CC(C)N1C[C@@]2(C[C@@H]2C(=O)N(C)C)n2cc(C(=O)NCc3cccc(Cl)c3F)c(=O)c(O)c2C1=O [Example T13, (1S,2S)-N^7′-(3-chloro-2-fluorobenzyl)-9′-hydroxy-2′-isopropyl-N^2,N^2-dimethyl-1′,8′-dioxo-1′,2′,3′,8′-tetrahydrospiro[cyclopropane-1,4′-pyrido[1,2-a]pyrazine]-2,7′-dicarboxamide hydrochloride] | 8.47 |  |  |
| CCN1C[C@]2(C[C@@H](COC)C2)n2cc(C(=O)NCc3cccc(Cl)c3F)c(=O)c(O)c2C1=O [Example S45, N-(3-chloro-2-fluorobenzyl)-2′-ethyl-9′-hydroxy-trans-3-(methoxymethyl)-1′,8′-dioxo-1′,2′,3′,8′-tetrahydrospiro[cyclobutane-1,4′-pyrido[1,2-a]pyrazine]-7′-carboxamide hydrochloride] |  | 8.41 |  |
| CCN1C(=O)c2c(O)c(=O)c(C(=O)NCc3cccc(Cl)c3F)cn2C[C@]12C[C@H](CO)C2 [Example S60, N-(3-chloro-2-fluorobenzyl)-2′-ethyl-9′-hydroxy-cis-3-(hydroxymethyl)-1′,8′-dioxo-1′,2′,4′,8′-tetrahydrospiro[cyclobutane-1,3′-pyrido[1,2-a]pyrazine]-7′-carboxamide hydrochloride] |  | 7.89 |  |
| CC(C)N1C[C@]2(C[C@H]2C(=O)N(C)C)n2cc(C(=O)NCc3cccc(Cl)c3F)c(=O)c(O)c2C1=O [Example T14, (1R,2R)-N^7′-(3-chloro-2-fluorobenzyl)-9′-hydroxy-2′-isopropyl-N^2,N^2-dimethyl-1′,8′-dioxo-1′,2′,3′,8′-tetrahydrospiro[cyclopropane-1,4′ -pyrido[1,2-a]pyrazine]-2,7′-dicarboxamide hydrochloride] | 8.32 |  |  |
| COC[C@H]1C[C@]2(CN(C)C(=O)c3c(O)c(=O)c(C(=O)NCc4cccc(Cl)c4F)cn32)C1 [Example 33, N-(3-chloro-2-fluorobenzyl)-9′-hydroxy-cis-3-(methoxymethyl)-2′-methyl-1′,8′-dioxo-1′,2′,3′,8′-tetrahydrospiro[cyclobutane-1,4′-pyrido[1,2-a]pyrazine]-7′-carboxamide 4-methylbenzenesulfonate] |  |  | pEC50 [3]: 9.05 |
| CCN1C(=O)c2c(O)c(=O)c(C(=O)NCc3ccc(F)cc3F)cn2C[C@@]12C[C@@H]2COC [Example T40, (1S,2S)-N-(2,4-difluorobenzyl)-2′-ethyl-9′-hydroxy-2-(methoxymethyl)-1′,8′-dioxo-1′,2′,4′,8′-tetrahydrospiro[cylcopropane-1,3′-pyrido[1,2-a]pyrazine]-7′-carboxamide hydrochloride] |  | 8.72 |  |
| CO[C@H]1C[C@]2(CN(C)C(=O)c3c(O)c(=O)c(C(=O)NCc4cccc(Cl)c4F)cn32)C1 [Example 24, Monosodium 7′-(3-chloro-2-fluorobenzylcarbamoyl)-cis-3-methoxy-2′-methyl-1′,8′-dioxo-1′,2′,3′,8′-tetrahydrospiro[cyclobutane-1,4′-pyrido[1,2-a]pyrazin]-9′-olate] |  |  | pEC50 [3]: 9.05 |
| CCOC[C@@H]1C[C@]12CN(C)C(=O)c1c(O)c(=O)c(C(=O)NCc3ccc(OC)c(Cl)c3F)cn12 [Example T35, (1R,2R)-N-(3-chloro-2-fluoro-4-methoxybenzyl)-2-(ethoxymethyl)-9′-hydroxy-2′-methyl-1′,8′-dioxo-1′,2′,3′,8′-tetrahydrospiro[cyclopropane-1,4′-pyrido[1,2-a]pyrazine]-7′-carboxamide hydrochloride] | 7.77 |  |  |
| CO[C@H]1C[C@]2(CN(C)C(=O)c3c(O)c(=O)c(C(=O)NCc4cccc(Cl)c4F)cn32)C1 [Example 23, N-(3-chloro-2-fluorobenzyl)-9′-hydroxy-cis-3-methoxy-2′-methyl-1′,8′-dioxo-1′,2′,3′,8′-tetrahydrospiro[cyclobutane-1,4′-pyrido[, 2-a]pyrazine]-7′-carboxamide] |  | 8.80 |  |
| CCN1C(=O)c2c(O)c(=O)c(C(=O)NCc3cccc(Cl)c3F)cn2C[C@]12C[C@H]2COC [Example 18, (1R,2R)—N-(3-chloro-2-fluorobenzyl)-2′-ethyl-9′-hydroxy-2-(methoxymethyl)-1′,8′-dioxo-1′,2′,4′,8′-tetrahydrospiro[cyclopropane-1,3′-pyrido[1,2-a]pyrazine]-7′-carboxamide] |  |  | pEC50 [4]: 8.59 |
| CCN1C(=O)c2c(O)c(=O)c(C(=O)NCc3cccc(Cl)c3F)cn2C[C@@]12C[C@@H]2COC [Example 17, (1S,2S)—N-(3-chloro-2-fluorobenzyl)-2′-ethyl-9′-hydroxy-2-(methoxymethyl)-1′,8′-dioxo-1′,2′,4′,8′-tetrahydrospiro[cyclopropane-1,3′-pyrido[1,2-a]pyrazine]-7′-carboxamide] |  |  | pEC50 [4]: 8.47 |
| CC(C)N1C[C@@]2(C[C@@H]2CO)n2cc(C(=O)NCc3cccc(Cl)c3F)c(=O)c(O)c2C1=O [Example T11, (1S,2S)-N-(3-chloro-2-fluorobenzyl)-9′-hydroxy-2-(hydroxymethyl)-2′-isopropyl-1′,8′-dioxo-1′,2′,3′,8′-tetrahydrospiro[cyclopropane-1,4′-pyrido[1,2-a]pyrazine]-7′-carboxamide hydrochloride] | 8.22 |  |  |
| CCN1C[C@]2(C[C@H](OCc3ccccc3)C2)n2cc(C(=O)NCc3ccc(F)cc3F)c(=O)c(O)c2C1=O [Example S16, cis-3-(benzyloxy)-N-(2,4-difluorobenzyl)-2′-ethyl-9′-hydroxy-1′,8′-dioxo-1′,2′,3′,8′-tetrahydrospiro[cyclobutane-1,4′-pyrido[1,2-a]pyrazine]-7′-carboxamide hydrochloride] |  |  | pEC50 [4]: 8.11 |
| CC(C)N1C[C@]2(C[C@@H](OCc3ccccc3)C2)n2cc(C(=O)NCc3ccc(F)cc3F)c(=O)c(O)c2C1=O [Example S1, trans-3-(benzyloxy)-N-(2,4-difluorobenzyl)-9′-hydroxy-2′-isopropyl-1′,8-dioxo-1′,2′,3′,8′-tetrahydrospiro[cyclobutane-1,4′-pyrido[1,2-a]pyrazine]-7′-carboxamide hydrochloride] |  |  | pEC50 [4]: 8.11 |
| CCN1C[C@]2(C[C@H]2COC)n2cc(C(=O)NCc3ccc(F)cc3F)c(=O)c(O)c2C1=O [Example T9, (1R,2R)-N-(2,4-difluorobenzyl)-2′-ethyl-9′-hydroxy-2-(methoxymethyl)-1′,8′-dioxo-1′,2′,3′,8′-tetrahydrospiro[cyclopropane-1,4′-pyrido[1,2-a]pyrazine]-7′-carboxamide hydrochloride] | 8.24 |  |  |
| COC[C@@H]1C[C@]12CN(C(C)C)C(=O)c1c(O)c(=O)c(C(=O)NCc3cccc(Cl)c3F)cn12 [Example T6, (1R,2R)-N-(3-chloro-2-fluorobenzyl)-9′-hydroxy-2′-isopropyl-2-(methoxymethyl)-1′,8′-dioxo-1′,2′,3′,8′-tetrahydrospiro[cyclopropane-1,4′-pyrido[1,2-a]pyrazine]-7′-carboxamide hydrochloride] | 8.42 |  |  |
| CCN1C[C@]2(C[C@H]2CO)n2cc(C(=O)NCc3ccc(F)cc3F)c(=O)c(O)c2C1=O [Example T10, (1R,2R)-N-(2,4-difluorobenzyl)-2′-ethyl-9′-hydroxy-2-(hydroxymethyl)-1′,8′-dioxo-1′,2′,3′,8′-tetrahydrospiro[cyclopropane-1,4′-pyrido[1,2-a]pyrazine]-7′-carboxamide hydrochloride] | 7.80 |  |  |
| COC[C@H]1C[C@]2(CN(C)C(=O)c3c(OC(=O)C(C)(C)C)c(=O)c(C(=O)NCc4cccc(Cl)c4F)cn32)C1 [Example S71, 7′-(3-chloro-2-fluorobenzylcarbamoyl)-cis-3-(methoxymethyl)-2′-methyl-1′,8′-dioxo-1′,2′,3′,8′-tetrahydrospiro[cyclobutane-1,4′-pyrido[1,2-a]pyrazin]-9′-yl pivalate] |  | 8.72 |  |
| COC[C@H]1C[C@@]12CN(C(C)C)C(=O)c1c(O)c(=O)c(C(=O)NCc3cccc(Cl)c3F)cn12 [Example T12, (1S,2S)-N-(3-chloro-2-fluorobenzyl)-9′-hydroxy-2′-isopropyl-2-(methoxymethyl)-1′,8′-dioxo-1′,2′,3′,8′-tetrahydrospiro[cylcopropane-1,4′-pyrido[1,2-a]pyrazine]-7′-carboxamide hydrochloride] |  | 8.24 |  |
| CC(C)N1C[C@@]2(C[C@H]2CO)n2cc(C(=O)NCc3cccc(Cl)c3F)c(=O)c(O)c2C1=O [Example T28, (1S,2R)-N-(3-chloro-2-fluorobenzyl)-9′-hydroxy-2-(hydroxymethyl)-2′-isopropyl-1′,8′-dioxo-1′,2′,3′,8′-tetrahydrospiro[cyclopropane-1,4′-pyrido[1,2-a]pyrazine]-7′-carboxamide hydrochloride] | 8.28 |  |  |
| CCO[C@H]1C[C@]2(Cn3cc(C(=O)NCc4cccc(Cl)c4F)c(=O)c(O)c3C(=O)N2CC)C1 [Example S57, N-(3-chloro-2-fluorobenzyl)- cis-3-ethoxy-2′-ethyl-9′-hydroxy-1′,8′-dioxo-1′,2′,4′,8′-tetrahydrospiro[cyclobutane-1,3′-pyrido[1,2-a]pyrazine]-7′-carboxamide hydrochloride] |  | 8.33 |  |
| CC(C)N1C[C@]2(C[C@H](OS(C)(=O)=O)C2)n2cc(C(=O)NCc3ccc(F)cc3F)c(=O)c(O)c2C1=O [Example S35, 7′-(2,4-difluorobenzylcarbamoyl)-9′-hydroxy-2′-isopropyl-1′,8′-dioxo-1′,2′,3′,8′-tetrahydrospiro[cyclobutane-1,4′-pyrido[1,2-a]pyrazine]- cis-3-yl methanesulfonate hydrochloride] |  | 8.14 |  |
| CCOC[C@H]1C[C@]2(CN(C)C(=O)c3c(O)c(=O)c(C(=O)NCc4cccc(Cl)c4F)cn32)C1 [Example S39, N-(3-chloro-2-fluorobenzyl)- cis-3-(ethoxymethyl)-9′-hydroxy-2′-methyl-1′,8′-dioxo-1′,2′,3′,8′-tetrahydrospiro[cyclobutane-1,4′-pyrido[1,2-a]pyrazine]-7′-carboxamide hydrochloride] |  | 8.46 |  |
